Data taken from the supplement of paper PMC11997997.

What was measured:
[1] = tested on: Mycobacterium tuberculosis CDC1551 (intracellular, in murine BMDM); test: area under intracellular growth-inhibition dose-response curve (AUC (% inhibition x dose, relative)); higher = more potent; conditions: duration: 6 days; dose range: 0.13-80 uM, 8 points
In short: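 Each value is an area under the growth-inhibition dose–response curve, calculated with GraphPad Prism. Infected primary murine bone marrow-derived macrophages, carrying luciferase-expressing M. tuberculosis CDC1551 at multiplicity of infection 1, were treated for 6 days with an 8-dose, 2.5-fold series (final 80–0.13 μM) in 384-well opaque plates. Readout was by Bright-Glo luciferin assay, normalised to a reference drug control and the lowest-concentration wells.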

[2] = tested on: murine bone marrow-derived macrophages; test: area under cytotoxicity dose-response curve (AUC (% cytotoxicity x dose, relative)); higher = more cytotoxic; conditions: duration: 6 days; dose range: 0.13-80 uM, 8 points
In short: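 An 8-point, 2.5-fold dilution series (final 80–0.13 μM) was applied for 6 days at 37 °C in 5% CO2 to primary murine bone marrow-derived macrophages plated in opaque 384-well plates. Promega's CellTiter-Glo luminescence assay measured viability, and percent cytotoxicity was normalised against vehicle and positive control wells. The area under the dose–response curve, worked out in GraphPad Prism version 10, is the reported cytotoxicity measure.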

| SMILES | area under intracellular growth-inhibition dose-response curve [1] | area under cytotoxicity dose-response curve [2] |
| --- | --- | --- |
| CCCCN(C(=O)CSc1nnc(-c2ccccc2)o1)c1c(N)n(CCC)c(=O)[nH]c1=O | 65.6 | < 0 |
| CCCCCCn1c(=O)c(C(=O)Nc2cnccn2)c(O)c2ccccc21 | 56.4 | < 0 |
| Cc1ccc(C[n+]2c(-c3ccc(C)cc3)cc(-c3ccc(C)cc3)cc2-c2ccc(C)cc2)cc1.[O-][Cl+3]([O-])([O-])[O-] | 253 | 59.3 |
| CCNC(=S)N/N=C(\C)c1ccc(N2CCOCC2)cc1 | 164 | 43.5 |
| Cc1cc2oc(=O)cc(-c3ccccc3)c2c(C)c1-c1ccc(CO)cc1 | 271 | < 0 |
| Cc1ccc(OCCOC(=O)c2c(-c3ccccc3)noc2C)cc1 | 200 | < 0 |
| CCOC(=O)c1cc(-c2csc(-c3ccc(C(C)(C)C)cc3)n2)on1 | 231 | 79.1 |
| COc1cc(/C=N/NC(=O)c2ccncc2)ccc1OCc1cnc(Cl)s1 | 219 | 3.56 |
| O=C(NCC1CC1(Cl)Cl)Nc1ccc(Cl)c(Cl)c1 (centres undefined) | 239 | 111 |
| Cc1ccccc1OCCC(=O)NNC(=O)c1ccccc1F | 106 | 17.3 |
| Clc1ccc2nnc(Cl)n2n1 | 79.4 | 54 |
| CSCCC(NC(=O)c1ccccc1Br)C(=O)NNC(=O)c1ccncc1 (centres undefined) | 244 | 12.7 |
| NC(=S)N/N=C/c1cccc(/C=N/NC(N)=S)c1 | 177 | 91.2 |
| CC(C)CC(=O)NC(=S)Nc1ccc(NC(=O)c2cccs2)cc1 | 271 | 33.2 |
| O=C1N(c2nncs2)CCN1[N+](=O)[O-] | 97.8 | < 0 |
| CCCCCCNC(=O)c1ccc(Br)o1 | 225 | < 0 |
| CN(C(=O)CSc1ncnc2sc3c(c12)CCC3)C1CCS(=O)(=O)C1 (centres undefined) | 60.2 | 4.88 |
| CCn1c(C)cs/c1=N/C(=O)c1ccccc1 | 197 | 25.7 |
| CC1(C)C2CCC1(C)C(NC(=O)/C=C/c1ccccc1)C2 (centres undefined) | 242 | 58.5 |
| Br.CCCc1cc(-c2nc(-c3ccc(C)cc3)cs2)ccn1 | 80.7 | 45.6 |
| Brc1ccc(-[n+]2c(-c3ccccc3)cc(-c3ccccc3)cc2-c2ccccc2)cc1.[O-][Cl+3]([O-])([O-])[O-] | 70.1 | 14.7 |
| S=C(NCc1ccc(Cl)cc1)NC12CC3CC(CC(C3)C1)C2 | 157 | < 0 |
| CCCn1nnc(NC(=S)NC(=O)c2ccccc2OC)n1 | 64.2 | 25.9 |
| CCN(CC)c1ccc(NC(=S)Nc2ccc(F)cc2)cc1 | 106 | 90.6 |
| C/C(=N\NC(=O)c1ccncc1)c1ccc(N(C)C)cc1 | 182 | 58.7 |
| CO[C@H]1C=CO[C@@]2(C)Oc3c(C)c(O)c4c(O)c(c(C=NN5CCN(C)CC5)c(O)c4c3C2=O)NC(=O)C(C)=CC=C[C@H](C)[C@H](O)[C@@H](C)[C@@H](O)[C@@H](C)[C@H](OC(C)=O)[C@@H]1C | 275 | 92.8 |

| SMILES | area under intracellular growth-inhibition dose-response curve [1] | area under cytotoxicity dose-response curve [2] |
| --- | --- | --- |
| O=C(NCc1cccs1)c1ccc(Cl)s1 | 212 | 2.8 |
| Cc1nc(SCc2ccccc2)c2oc3ccccc3c2n1 | 143 | 34.5 |
| COc1ccc(NS(=O)(=O)c2ccc(N3CCOCC3)c(N)c2)cc1 | 34.5 | < 0 |
| CSc1nnc(-c2ccc(NC(N)=S)cc2)o1 | 154 | 96.1 |
| Cc1cc(NC(=O)c2ccc([N+](=O)[O-])o2)ccc1NC(=O)c1ccco1 | 63.8 | 88.8 |
| CC1CCc2c(nc3sc4c(c3c2N)CCCC4)C1 (centres undefined) | 206 | 60.7 |
| CCCn1c(-c2cccs2)nc2ccccc21 | 103 | < 0 |
| CCc1ccc(NC(=O)NC2CCCCCCC2)cc1 | 120 | 85.4 |
| Cc1nn(-c2ccccc2)cc1/C=N/NC(N)=S | 274 | 24.4 |
| CC(=O)Oc1c(C)cc(Cl)cc1C(=O)Nc1ccc([N+](=O)[O-])cc1Cl | 230 | 113 |
| CCCCNC(=O)/C=C/c1cccs1 | 191 | 7.87 |
| C/C(CC(C)(C)C1CCCCC1)=N\NC(N)=S | 238 | 119 |
| Cc1ccc(C2(C)NC(=O)N(CC(=O)N3c4ccccc4NC(=O)CC3C)C2=O)cc1 (centres undefined) | 36.2 | 3.65 |
| CCc1cccc2sc(N3CCN(C(=O)c4ccc([N+](=O)[O-])o4)CC3)nc12 | 71.9 | 85.8 |
| CC1=CCCC(C)(C)C1/C=C/C(C)=N/NC(=O)c1ccncc1 (centres undefined) | 247 | < 0 |
| COc1c(/C=N/NC(=O)c2ccncc2)c(CCN(C)C(C)=O)cc2c1OCO2 | 252 | 96.3 |
| COC(=O)C1C(O)C(C)C(O)C(C)/C=C\C=C(/C)C(=O)Nc2c(C)c(OC(C)=O)c3c(c2O)C(=O)C(C)=C2OCOC(=C23)/C(C)=C/C(C)(O)C(O)C(C)C1O (centres undefined) | 216 | 11.5 |
| O=C(CC12CC3CC(CC(C3)C1)C2)N1CCCC1 | 216 | 75.6 |
| O=C(c1cccc(C(F)(F)F)c1)N1CCCC1 | 232 | < 0 |
| Cc1ccc2c(c1)sc(-c1ccc(N(C)C)cc1)[n+]2C.[I-] | < 0 | 125 |
| CC(C)(C)c1ccc(OCCNC(=O)c2nc[nH]n2)cc1 | 233 | < 0 |
| CC(C)(C)C1C/C(=C/c2ccccn2)C(=O)/C(=C/c2ccccn2)C1 (centres undefined) | 65.4 | 155 |
| Cc1ccc(-c2cc(-c3ccccc3)cc(-c3ccccc3)[n+]2-c2ccccc2)cc1.[O-][Cl+3]([O-])([O-])[O-] | 91.8 | 23.7 |
| CNc1nc(SC)nc2ccccc12 | 242 | 77.9 |
| Cc1ccc(C(C)C)c(OCc2n[n+](CC(=O)c3ccc(Cl)cc3)c3n2CCCCC3)c1.[Br-] | 169 | < 0 |
| O=C(CCN1C(=O)S/C(=C/c2ccccc2)C1=O)Nc1ccc(C(=O)O)c(O)c1 | 117 | 156 |
